In patent publication US20090252717A1, “Compositions and Methods for Treating Polyglutamine-Expansion Neurodegenerative Diseases” (priority 2006, published 2009):
“Also recorded” adds a separate entry of the source.

How the values were obtained:
[1] = test system: polyQ-AR-induced inhibition of fast axonal transport; assay: Vesicle motility assay in isolated squid axoplasm, co-perfusion with polyQ-AR; format: cell-based, squid Loligo pealeii
Protocol: (§1) Recombinant Polypeptides. Wild-type androgen receptor and polyQ-AR polypeptides were produced by in vitro transcription/translation (TNT T7-Coupled Reticulocyte Lysate System; Promega, Madison, Wis.) according to manufacturer's protocols. Typically, 1.8 μg of plasmid was transcribed in 50 μl reaction mix. To assess protein levels, parallel reactions were performed incorporating ^35S-labeled methionine (Amersham) or quantitative immunoblots were performed. Protein concentrations were typically 0.2-0.5 nM. In vitro translated androgen receptor has been characterized and shown to be functional (Kuiper, et al. (1993) Biochem. J. 296(Pt 1):161-7). In vitro translation products were briefly centrifuged to eliminate translation machinery, and supernatants frozen in liquid N2 until used.
(§2) Squid Axoplasm. Isolated squid axoplasm represents a unique experimental system to evaluate axonal-specific effects and pathogenic mechanisms. This model was instrumental in the original discovery of kinesin-1 (Brady (1985) Nature 317:73-75, novel pathways for fast axonal transport (Morfini, et al. (2002) supra; Morfini, et al. (2004) supra), and axonal-specific phosphorylation events (Grant & Pant (2000) J. Neurocytol. 29:843-72). Bidirectional membrane-bound organelle movements are observed with properties unchanged from intact axons for hours after removal of plasma membrane (Brady, et al. (1982) Science 218:1129-1131). Video-enhanced microscopic techniques allow quantitative analysis of membrane-bound organelle movement in fast axonal transport. Typical kinesin-dependent transport rates are 1.5-2.0 μm/s, whereas retrograde, cytoplasmic dynein-dependent rates are 1-1.3 μm/s in perfused axoplasms. These rates are maintained with little (<10%) or no reduction for >1 hour after perfusion with control buffer (Brady, et al. (1982) supra). […]
(§3) Motility Studies in Isolated Axoplasm. […] Preparations were analyzed on a ZEISS AXIOMAT with a 100×, 1.3 n.a. objective, and DIC optics. […] Organelle velocities were measured with a Photonics Microscopy C2117 video manipulator (Hamamatsu).

[2] = test system: polyQ-Htt-induced inhibition of fast axonal transport; assay: Vesicle motility assay in isolated squid axoplasm, co-perfusion with polyQ-Htt; format: cell-based, squid Loligo pealeii; details: co-perfused with polyQ-Htt, concentration not given
Text: (§4) Genes encoding human wild-type Huntingtin (Htt) (i.e., Q20, residues 1-548; Szebenyi, et al. (2003) supra) and polyQ-expanded Htt (i.e., Q46, residues 1-949; Qin, et al. (2004) J. Neurosci. 24(1):269-81) were cloned into the pcDNA.3 vector and produced by in vitro transcription/translation as described for the androgen receptor. Alternatively, shorter constructs (Htt exon1) were expressed in E. coli as GST-tagged proteins.
as §2, with “transport.” for “transport. Typical kinesin-dependent transport rates are 1.5-2.0 μm/s, whereas retrograde, cytoplasmic dynein-dependent rates are 1-1.3 μm/s in perfused axoplasms. These rates are maintained with little (<10%) or no reduction for >1 hour after perfusion with control buffer (Brady, et al. (1982) supra).”
Motility Studies in Isolated Axoplasm. […] Preparations were analyzed on a ZEISS AXIOMAT with a 100×, 1.3 n.a. objective, and DIC optics. […]

[3] = test system: p38α, p38β, JNK2, and JNK3; details: cited from earlier work
[4] = test system: wild-type androgen receptor SH-SY5Y cells; assay: Neurite outgrowth of differentiated SH-SY5Y cells expressing wild-type androgen receptor; format: cell-based, human; details: 10 μM
Protocol: (§5) SH-SY5Y Cell Culture and Pharmacological Inhibition. Androgen receptor constructs containing wild-type androgen receptor (Q20) and pathogenic androgen receptor (Q56) tracts were prepared and stably transfected into SH-SY5Y human neuroblastoma cells (Avila, et al. (2003) Exp. Biol. Med. (Maywood) 228:982-90). Wild-type and 902-6 cells (expressing both full-length polyQ-AR and a truncated N-terminal androgen receptor fragment (≈25 kD) that accumulated in cytoplasm) were grown and differentiated (Szebenyi, et al. (2003) supra). Cells were plated at densities of 10,000 cells/cm^2 on 10-cm tissue culture dishes for biochemical studies, and at 3000-5000 cells/cm^2 on 4-well tissue-tech chamber slides (Becton-Dickinson, Mountain View, Calif.) for immunocytochemistry and morphometric studies. For inhibitor studies, cells were differentiated with 10 μM retinoic acid in serum for 5-6 days, and then switched to serum-free medium supplemented with 25 ng/ml BDNF (Alomone Laboratories, Jerusalem, Israel) with or without SB203580 inhibitor. Cell morphologies were evaluated after 3 days in BDNF±SB203580 (Szebenyi, et al. (2003) supra).

[5] = test system: 902-6 SH-SY5Y cells (polyQ-AR); assay: Neurite outgrowth of differentiated SH-SY5Y cells expressing polyQ-AR; format: cell-based, human
Protocol: as §5

kinesin-1 = assay: Kinesin-1 ATPase assay; format: biochemical, rat; details: in vitro, up to equimolar levels of androgen receptor and kinesin-1
Protocol: Kinesin-1 ATPase Assays. Kinesin-1 basal and microtubule-activated ATPase activity was assayed according to known methods (Morfini, et al. (2002) supra; Tsai, et al. (2000) Mol. Biol. Cell 11:2161-2173). Briefly, purified rat brain kinesin and in vitro-translated androgen receptor constructs were incubated with or without TAXOL-stabilized MAP-free microtubules (1 mg/ml). Assays were started by addition of 1 mCi γ-^32P ATP (ICN Biochemicals, Costa Mesa, Calif.) and incubated for 25 minutes at 37° C. Reactions were stopped with 10% SDS and aliquots spotted on PEI-cellulose plates. Chromatograms were developed in 0.5 M LiCl/1 M formic acid and spots for ^32P and γ-^32P ATP counted to obtain percent of total ^32P recovered as free phosphate.

[6] = test system: neurofilament phosphorylation; assay: Neurofilament phosphorylation in squid axoplasm (immunoblot, SMI32); format: cell-based; details: axoplasm incubated with protein
Protocol: Phosphorylation Studies in Squid Axoplasm. Three to four axoplasms were triturated in KB buffer (KB: 10 mM HEPES pH 7.4, 10 mM MgCl2, 1 mM DTT) and aliquoted. Individual reactions with corresponding in vitro-translated androgen receptor constructs were started by adding radiolabeled ATP to 100 μM. Reactions were done in 50 μl, incubated for 20 minutes at room temperature and stopped with 50 μl of 2× sample buffer. Lysates were separated by SDS-PAGE and analyzed by autoradiography. For certain indicated assays, 2 axoplasms per tube were incubated in X/2 buffer for 50 minutes with corresponding in vitro-translated androgen receptor construct, then 50 μl of 2× sample buffer was added and samples analyzed by immunoblot.

fast axonal transport [7] = assay: Vesicle motility assay in isolated squid axoplasm, perfusion of recombinant protein alone; format: cell-based, squid Loligo pealeii; details: protein alone
Protocol: as §1, §4
as §2, with “supra). The lack of permeability barriers allows perfusion of the axoplasm with a variety of effector molecules at known concentrations. Effectors of interest include nucleotides, pharmacological inhibitors, recombinant polypeptides, and antibodies.” for “supra).”
as §3

fast axonal transport [8] = details: cited from earlier work
[9] = co-perfused with polyQ-AR, concentration not given

Row | Compound | effect on polyQ-AR-induced inhibition of fast axonal transport [1, 9] | effect on polyQ-Htt-induced inhibition of fast axonal transport [2] | effect on basal and microtubule-activated ATPase activity of kinesin-1 (kinesin-1) | mean fast axonal transport rate (fast axonal transport [7]; 20-30 minutes) [μm/sec] | mean fast axonal transport rate (fast axonal transport [7]; 40-50 minutes) [μm/sec] | further results
1 | CCSCc1ccc2c(c1)c1c3c(c4c5cc(CSCC)ccc5n5c4c1n2[C@H]1C[C@](O)(C(=O)OC)[C@]5(C)O1)CNC3=O [CEP-1347] | prevented the effects of polyQ-Htt and polyQ-AR on fast axonal transport | prevented the effects of polyQ-Htt and polyQ-AR on fast axonal transport |  |  |  | 
2 | C[S+]([O-])c1ccc(-c2nc(-c3ccncc3)c(-c3ccc(F)cc3)[nH]2)cc1 (stereo not shown) [SB203580] |  | prevented the effects of polyQ-Htt on fast axonal transport |  |  |  | kinases inhibited [3]: inhibits p38α, p38β, JNK2, and JNK3; neurite outgrowth [4]: increasing neurite outgrowth; effect on polyQ-AR-induced inhibition of fast axonal transport ([1]; 10 μM co-perfused with polyQ-AR): completely blocked the inhibition of fast axonal transport in both anterograde and retrograde directions; proportion of cells with long neurites (>80 μm in length) ([5]; 10 μM or 20 μM): dramatic and dose-dependent increase in the proportion of cells that extended long neurites; also recorded: significant increase in the number of polyQ-AR cells extending long neurites; neurite length / outgrowth ([5]; 10 μM, 3 days BDNF): increasing neurite outgrowth; also recorded: increased in length; neurite length / morphology distribution ([5]; 20 μM, 3 days BDNF): nearly indistinguishable between wild-type and 902-6 cells; also recorded: indistinguishable from untreated wild-type androgen receptor cells; effect on inhibition of neurite outgrowth by polyQ-AR ([5]; added to culture media, 3 days BDNF): overcame inhibition of neurite outgrowth by polyQ-AR; also recorded: reverses inhibition of neurite formation by polyQ-AR
3 | C=C1[C@@H](O)[C@@H]2O[C@]3(CC[C@H](/C=C/[C@@H](C)[C@@H]4CC(C)=C[C@@]5(O[C@H](C[C@@](C)(O)C(=O)O)CC[C@H]5O)O4)O3)CC[C@H]2O[C@@H]1[C@@H](O)C[C@H](C)[C@H]1O[C@@]2(CCCCO2)CC[C@H]1C [okadaic acid] | failed to prevent polyQ-AR-induced fast axonal transport inhibition |  |  |  |  | 
4 | polyQ-AR: polyglutamine-expanded androgen receptor (Q56) produced by in vitro transcription/translation |  |  | failed to affect either basal or microtubule-activated ATPase activity of kinesin-1 | 1.25±0.03 | 1.08±0.02 | SMI32 immunoreactivity [6]: reduced; level that inhibits fast axonal transport (fast axonal transport [8]): < 1 nM
5 | wild-type androgen receptor: wild-type androgen receptor (Q20) produced by in vitro transcription/translation |  |  | not affected | 1.71±0.03 | 1.77±0.04 | 
